{"source": "patent US20210254056A1", "about": "“IDENTIFICATION AND TARGETED MODULATION OF GENE SIGNALING NETWORKS” (CAMP4 THERAPEUTICS CORPORATION, priority 2017, published 2021)", "key": {"[1]": {"system": "primary human hepatocytes", "experiment": "RNA-seq of primary human hepatocytes treated with 39 small molecules (pilot and validation)", "details": "pilot RNA-seq study of Example 2; significance: FPKM≥0.5, log 2(fold change)≥1, q-value ≤0.05"}, "hepatocytes [2]": {"system": "hepatocytes", "experiment": "qRT-PCR validation of the Example 12 RNA-seq results;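 also: Compound-treated versus DMSO control, target Ct normalized to GAPDH or β-actin reference (ΔΔCt method), positive values mean higher expression than DMSO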"}, "hepatocytes [3]": {"system": "hepatocytes"}, "hepatocytes [4]": {"system": "hepatocytes", "experiment": "RNA-seq of hepatocytes stimulated with the compounds of Table 68", "details": "hepatocytes, RNA-seq"}, "hepatocytes [5]": {"system": "hepatocytes", "remark": "listed apart in the source"}}}
{"smiles": "CO[C@H]1/C=C/O[C@@]2(C)Oc3c(C)c(O)c4c(O)c(c(/C=N/N5CCN(C)CC5)c(O)c4c3C2=O)NC(=O)/C(C)=C\\C=C\\[C@H](C)[C@H](O)[C@@H](C)[C@@H](O)[C@@H](C)[C@H](OC(C)=O)[C@@H]1C", "note": "[MT-901, Rifampicin]", "values": [{"measurement": "Number (#) of genes having significantly changed expression", "setting": "[1]", "result": 90}, {"measurement": "qRT-PCR log2fc, AGTR1", "setting": "hepatocytes [2]; log 2 fold change in AGTR1 gene expression", "result": "−0.37"}, {"measurement": "qRT-PCR log2fc, ALAS1", "setting": "hepatocytes [2]; log 2 fold change in ALAS1 gene expression", "result": 0.3}, {"measurement": "qRT-PCR log2fc, CA12", "setting": "hepatocytes [2]; log 2 fold change in CA12 gene expression", "result": 0.53}, {"measurement": "qRT-PCR log2fc, ENO3", "setting": "hepatocytes [2]; log 2 fold change in ENO3 gene expression", "result": "−0.06"}, {"measurement": "qRT-PCR log2fc, POR", "setting": "hepatocytes [2]; log 2 fold change in POR gene expression", "result": 0.16}, {"measurement": "qRT-PCR log2fc, SLC6A6", "setting": "hepatocytes [2]; log 2 fold change in SLC6A6 gene expression", "result": "−0.14"}, {"measurement": "qRT-PCR log2fc, SLC6A20", "setting": "hepatocytes [2]; log 2 fold change in SLC6A20 gene expression", "result": "−0.17"}, {"measurement": "qRT-PCR log2fc, SLC51B", "setting": "hepatocytes [2]; log 2 fold change in SLC51B gene expression", "result": 1.72}, {"measurement": "qRT-PCR log2fc, VLDLR", "setting": "hepatocytes [2]; log 2 fold change in VLDLR gene expression", "result": 0.63}, {"measurement": "DESeq log2fc, CYP7A1", "setting": "hepatocytes [3]", "result": "−1.44"}, {"measurement": "Cuffdiff log2fc, AGTR1", "setting": "hepatocytes [4]; log 2 fold change in AGTR1 gene expression, Cuffdiff", "result": 1.1}, {"measurement": "DESeq log2fc, AGTR1", "setting": "hepatocytes [4]; log 2 fold change in AGTR1 gene expression, DESeq", "result": 1.18}, {"measurement": "Cuffdiff log2fc, ALAS1", "setting": "hepatocytes [4]; log 2 fold change in ALAS1 gene expression, Cuffdiff", "result": 1.45}, {"measurement": "DESeq log2fc, ALAS1", "setting": "hepatocytes [4]; log 2 fold change in ALAS1 gene expression, DESeq", "result": 1.47}, {"measurement": "Cuffdiff log2fc, CA12", "setting": "hepatocytes [4]; log 2 fold change in CA12 gene expression, Cuffdiff", "result": 1.53}, {"measurement": "DESeq log2fc, CA12", "setting": "hepatocytes [4]; log 2 fold change in CA12 gene expression, DESeq", "result": 1.56}, {"measurement": "DESeq log2fc, CYP2C19", "setting": "hepatocytes [4]; log 2 fold change in CYP2C19 gene expression, DESeq", "result": 2.3}, {"measurement": "Cuffdiff log2fc, ENO3", "setting": "hepatocytes [4]; log 2 fold change in ENO3 gene expression, Cuffdiff", "result": "−1.13"}, {"measurement": "DESeq log2fc, ENO3", "setting": "hepatocytes [4]; log 2 fold change in ENO3 gene expression, DESeq", "result": "−0.97"}, {"measurement": "Cuffdiff log2fc, POR", "setting": "hepatocytes [4]; log 2 fold change in POR gene expression, Cuffdiff", "result": 1.13}, {"measurement": "DESeq log2fc, POR", "setting": "hepatocytes [4]; log 2 fold change in POR gene expression, DESeq", "result": 1.17}, {"measurement": "Cuffdiff log2fc, SLC6A6", "setting": "hepatocytes [4]; log 2 fold change in SLC6A6 gene expression, Cuffdiff", "result": 1.28}, {"measurement": "DESeq log2fc, SLC6A6", "setting": "hepatocytes [4]; log 2 fold change in SLC6A6 gene expression, DESeq", "result": 1.39}, {"measurement": "Cuffdiff log2fc, SLC6A20", "setting": "hepatocytes [4]; log 2 fold change in SLC6A20 gene expression, Cuffdiff", "result": 1.03}, {"measurement": "DESeq log2fc, SLC6A20", "setting": "hepatocytes [4]; log 2 fold change in SLC6A20 gene expression, DESeq", "result": 1.06}, {"measurement": "Cuffdiff log2fc, SLC51B", "setting": "hepatocytes [4]; log 2 fold change in SLC51B gene expression, Cuffdiff", "result": 1.02}, {"measurement": "DESeq log2fc, SLC51B", "setting": "hepatocytes [4]; log 2 fold change in SLC51B gene expression, DESeq", "result": 1.19}, {"measurement": "Cuffdiff log2fc, VLDLR", "setting": "hepatocytes [4]; log 2 fold change in VLDLR gene expression, Cuffdiff", "result": 1.69}, {"measurement": "DESeq log2fc, VLDLR", "setting": "hepatocytes [4]; log 2 fold change in VLDLR gene expression, DESeq", "result": 1.71}, {"measurement": "qRT-PCR log2fc, CYP2C19", "setting": "hepatocytes [5]", "result": "−0.37"}]}
